# According to patent US6218396A, “Substituted pyridino arylpiperazines useful in the treatment of benign prostatic hyperplasia” (Orth-McNeil Pharmaceutical, Inc., priority 1999, dated 2001):
# Target: T1, α1a-AR (Homo sapiens, UniProt P35348)
# T1 construct: expressed in transfected cells; host or cells: COS cells (pcDNA3, transient DEAE-dextran transfection; membranes)
# T1 sequence (P35348 1-466): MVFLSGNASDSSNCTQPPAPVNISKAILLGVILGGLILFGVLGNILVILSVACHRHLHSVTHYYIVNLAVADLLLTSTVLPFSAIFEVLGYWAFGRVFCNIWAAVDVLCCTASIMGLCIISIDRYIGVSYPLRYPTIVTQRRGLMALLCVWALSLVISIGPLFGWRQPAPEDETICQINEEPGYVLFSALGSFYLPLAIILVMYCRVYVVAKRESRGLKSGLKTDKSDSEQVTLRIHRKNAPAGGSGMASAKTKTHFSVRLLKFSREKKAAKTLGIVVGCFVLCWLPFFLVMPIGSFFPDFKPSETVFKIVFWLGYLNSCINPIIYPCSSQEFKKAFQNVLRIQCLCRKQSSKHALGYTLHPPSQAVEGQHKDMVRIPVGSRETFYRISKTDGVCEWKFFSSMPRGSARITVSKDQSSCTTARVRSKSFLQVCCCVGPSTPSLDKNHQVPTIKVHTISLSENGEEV
# Assay: receptor binding assay, [125I]-HEAT, membranes of COS cells expressing α1a-AR
# Conditions: [125I]-HEAT 50 pM, human α1a-AR in COS cell membranes; unit 'nanomolar'
# Source text: (§1) The DNA sequences of the three cloned human α1-AR subtypes have been published. […] We used published DNA sequence information to design primers for use in RT-PCR amplification of each subtype to obtain cloned cDNAs. Human poly A+ RNA was obtained from commercially available sources and included hippocampus and prostate samples, sources which have been cited in the literature. For the primary screen a radio ligand binding assay was used which employed membrane preparations from cells expressing the individual cloned receptor cDNAs. Radiolabeled ligands with binding activity on all three subtypes (non-selective) are commercially available ([125I]-HEAT, [3H]-prazosin).
# (§2) Each α1 receptor subtype was cloned from poly A+ RNA by the standard method of reverse transcription-polymerase chain reaction (RT-PCR). The following sources of polyA+ RNA were used for the cloning of the α1 receptor subtypes: α1a -AR, human hippocampus and prostate, α1b -AR, human hippocampus, α1d -AR, human hippocampus. The resulting cDNAs were cloned into the pcDNA3 mammalian expression vector (Invitrogen Corp., San Diego Calif.). Each DNA was sequenced for verification and to detect any possible mutations introduced during the amplification process. Any deviation in sequence from the published consensus for each receptor subtype was corrected by site-directed mutagenesis.
# (§3) The three α1-AR subtypes (a, b, d) were transfected into COS cells using a standard DEAE-dextran procedure with a chloroquine shock. In this procedure, each tissue culture dish (100 mm) was inoculated with 3.5×10^6 cells and transfected with 10 μg of DNA. Approximately 72 hours post-transfection, the cells were harvested and COS membranes were prepared. Transfected COS cells from 25 plates (100 mm) were scraped and suspended in 15 mL of TE buffer (50 mM Tris-HCl, 5 mM EDTA, pH7.4). The suspension was disrupted with a homogenizer. It was then centrifuged at 1000×g for 10 minutes at […]. The supernatant was centrifuged at 34,500×g for 20 minutes at 4° C. The pellet was resuspended in 5 mL TNE buffer (50 mM Tris-HCl, 5 mM EDTA, 150 mM NaCl, pH7.4). The resulting membrane preparation was aliquoted and stored at -70° C. The protein concentration was determined following membrane solubilization with TritonX-100.
# (§4) The ability of each compound to bind to each of the α1-AR subtypes was assessed in a receptor binding assay. [125I]-HEAT, a non-selective α1-AR ligand, was used as the radiolabeled ligand. Each well of a 96-well plate received: 140 μL TNE, 25 μL [125I]-HEAT diluted in TNE (50,000 cpm; final concentration 50 pM), 10 μL test compound diluted in DMSO (final concentration 1 pM-10 μM), […] COS cell membrane preparation expressing one of the three α1-AR subtypes (0.05-0.2 mg membrane protein). The plate was incubated for 1 hour at room temperature and the reaction mixtures were filtered through a Packard GF/C Unifilter filter plate. The filter plate was dried for 1 hour in a vacuum oven. Scintillation fluid ([…]) was added to each well, and the filter plate was counted in a Packard Topcount scintillation counter. Data was analyzed using GraphPad Prism software.
row,IC50,Structure (SMILES)
1,1.5 nM,CC(C)Oc1ccccc1N1CCN(CC(O)CNC(=O)c2cccnc2Oc2ccccc2)CC1 (stereo not drawn) [Compound 3]
2,0.64 nM,CC(C)Oc1ccccc1N1CCN(CCCNC(=O)c2cccnc2Oc2ccccc2)CC1 [Compound 5]
3,0.76 nM,CC(C)Oc1ccccc1N1CCN(C[C@@H](O)CNC(=O)c2cccnc2Oc2ccccc2)CC1 [Compound 8]
4,2.4 nM,COc1ccc(Oc2ncccc2C(=O)NCC(O)CN2CCN(c3ccccc3OC(C)C)CC2)cc1 (stereo not drawn) [Compound 10]
5,25 nM,CC(C)Oc1ccccc1N1CCN(CC(O)CNC(=O)c2cccnc2Nc2cccc(C(F)(F)F)c2)CC1 (stereo not drawn) [Compound 11]
6,2.6 nM,CC(C)Oc1ccccc1N1CCN(CC(O)CNC(=O)c2cccnc2Sc2ccc(Cl)cc2)CC1 (stereo not drawn) [Compound 12]
7,3.5 nM,COc1ncccc1C(=O)NCC(O)CN1CCN(c2ccccc2OC(C)C)CC1 (stereo not drawn) [Compound 13]
8,2.4 nM,COC(CNC(=O)c1cccnc1Oc1ccccc1)CN1CCN(c2ccccc2OC(C)C)CC1 (stereo not drawn) [Compound 16]
9,63 nM,CC(C)Oc1ccccc1N1CCN(CC(=O)CNC(=O)c2cccnc2Oc2ccccc2)CC1 [Compound 17]
10,0.51 nM,Cc1ccc(Oc2ncccc2C(=O)NC[C@H](O)CN2CCN(c3ccccc3OC(C)C)CC2)cc1 [Compound 18]
11,0.86 nM,CC(C)Oc1ccccc1N1CCN(C[C@@H](O)CNC(=O)c2cccnc2Oc2ccc(Cl)cc2)CC1 [Compound 27]
12,25 nM,Cc1ccc(Oc2ncccc2C(=O)NC[C@@H](O)CN2CCN(c3ccccc3OC(C)C)CC2)cc1 [Compound 28]
13,0.27 nM,Cc1ccc(Oc2ncccc2C(=O)NCCCN2CCN(c3ccccc3OC(C)C)CC2)cc1 [Compound 29]
14,2 nM,CC(C)Oc1ccccc1N1CCN(CC(O)CNC(=O)c2cccnc2Oc2ccc(Cl)c(Cl)c2)CC1 (stereo not drawn) [Compound 30]

# Target: T2, α1b-AR (Homo sapiens, UniProt P35368)
# T2 construct: expressed in transfected cells; host or cells: COS cells (pcDNA3, transient DEAE-dextran transfection; membranes)
# T2 sequence (P35368 1-520): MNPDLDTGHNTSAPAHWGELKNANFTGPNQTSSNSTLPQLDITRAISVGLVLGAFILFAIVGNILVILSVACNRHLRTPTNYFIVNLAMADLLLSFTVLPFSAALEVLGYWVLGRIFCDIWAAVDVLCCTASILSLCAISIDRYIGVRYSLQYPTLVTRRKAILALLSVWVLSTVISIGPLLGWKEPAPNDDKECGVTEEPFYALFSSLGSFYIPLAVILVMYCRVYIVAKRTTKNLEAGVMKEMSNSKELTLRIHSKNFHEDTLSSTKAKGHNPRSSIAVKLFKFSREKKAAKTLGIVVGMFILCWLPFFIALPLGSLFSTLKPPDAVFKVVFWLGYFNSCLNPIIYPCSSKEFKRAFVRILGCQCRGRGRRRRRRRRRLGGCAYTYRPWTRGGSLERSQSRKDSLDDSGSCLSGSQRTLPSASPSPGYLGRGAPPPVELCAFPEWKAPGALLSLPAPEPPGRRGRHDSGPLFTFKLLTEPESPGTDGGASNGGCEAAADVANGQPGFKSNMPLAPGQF
# Assay: receptor binding assay, [125I]-HEAT, membranes of COS cells expressing α1b-AR
# Conditions: [125I]-HEAT 50 pM, human α1b-AR in COS cell membranes; unit 'nanomolar'
# Source text: as §1, §2, §3, §4
row,IC50,Structure (SMILES)
1,909 nM,CC(C)Oc1ccccc1N1CCN(CC(O)CNC(=O)c2cccnc2Oc2ccccc2)CC1 (stereo not drawn) [Compound 3]
2,151 nM,CC(C)Oc1ccccc1N1CCN(CCCNC(=O)c2cccnc2Oc2ccccc2)CC1 [Compound 5]
3,668 nM,CC(C)Oc1ccccc1N1CCN(C[C@@H](O)CNC(=O)c2cccnc2Oc2ccccc2)CC1 [Compound 8]
4,1910 nM,COc1ccc(Oc2ncccc2C(=O)NCC(O)CN2CCN(c3ccccc3OC(C)C)CC2)cc1 (stereo not drawn) [Compound 10]
5,1020 nM,CC(C)Oc1ccccc1N1CCN(CC(O)CNC(=O)c2cccnc2Nc2cccc(C(F)(F)F)c2)CC1 (stereo not drawn) [Compound 11]
6,806 nM,CC(C)Oc1ccccc1N1CCN(CC(O)CNC(=O)c2cccnc2Sc2ccc(Cl)cc2)CC1 (stereo not drawn) [Compound 12]
7,> 2000 nM,COc1ncccc1C(=O)NCC(O)CN1CCN(c2ccccc2OC(C)C)CC1 (stereo not drawn) [Compound 13]
8,1360 nM,COC(CNC(=O)c1cccnc1Oc1ccccc1)CN1CCN(c2ccccc2OC(C)C)CC1 (stereo not drawn) [Compound 16]
9,887 nM,CC(C)Oc1ccccc1N1CCN(CC(=O)CNC(=O)c2cccnc2Oc2ccccc2)CC1 [Compound 17]
10,290 nM,Cc1ccc(Oc2ncccc2C(=O)NC[C@H](O)CN2CCN(c3ccccc3OC(C)C)CC2)cc1 [Compound 18]
11,791 nM,CC(C)Oc1ccccc1N1CCN(C[C@@H](O)CNC(=O)c2cccnc2Oc2ccc(Cl)cc2)CC1 [Compound 27]
12,361 nM,Cc1ccc(Oc2ncccc2C(=O)NC[C@@H](O)CN2CCN(c3ccccc3OC(C)C)CC2)cc1 [Compound 28]
13,> 2000 nM,Cc1ccc(Oc2ncccc2C(=O)NCCCN2CCN(c3ccccc3OC(C)C)CC2)cc1 [Compound 29]
14,2250 nM,CC(C)Oc1ccccc1N1CCN(CC(O)CNC(=O)c2cccnc2Oc2ccc(Cl)c(Cl)c2)CC1 (stereo not drawn) [Compound 30]

# Target: T3, α1d-AR (Homo sapiens, UniProt P25100)
# T3 construct: expressed in transfected cells; host or cells: COS cells (pcDNA3, transient DEAE-dextran transfection; membranes)
# T3 sequence (P25100 1-572): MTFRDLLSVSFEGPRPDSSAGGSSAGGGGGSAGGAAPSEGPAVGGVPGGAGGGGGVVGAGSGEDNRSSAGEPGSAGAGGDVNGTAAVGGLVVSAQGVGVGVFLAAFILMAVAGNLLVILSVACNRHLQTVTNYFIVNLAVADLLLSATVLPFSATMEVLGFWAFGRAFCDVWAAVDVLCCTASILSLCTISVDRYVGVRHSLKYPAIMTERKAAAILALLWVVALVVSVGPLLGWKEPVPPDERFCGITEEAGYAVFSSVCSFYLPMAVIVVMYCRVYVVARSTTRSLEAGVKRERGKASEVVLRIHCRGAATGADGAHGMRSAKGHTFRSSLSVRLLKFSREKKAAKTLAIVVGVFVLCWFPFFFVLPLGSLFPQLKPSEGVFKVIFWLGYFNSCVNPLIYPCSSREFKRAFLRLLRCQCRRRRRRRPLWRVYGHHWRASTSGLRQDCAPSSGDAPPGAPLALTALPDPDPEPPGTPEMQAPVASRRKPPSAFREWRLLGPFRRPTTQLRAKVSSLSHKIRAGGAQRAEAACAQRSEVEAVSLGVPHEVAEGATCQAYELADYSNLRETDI
# Assay: receptor binding assay, [125I]-HEAT, membranes of COS cells expressing α1d-AR
# Conditions: [125I]-HEAT 50 pM, human α1d-AR in COS cell membranes; unit 'nanomolar'
# Source text: as §1, §2, §3, §4
row,IC50,Structure (SMILES)
1,211 nM,CC(C)Oc1ccccc1N1CCN(CC(O)CNC(=O)c2cccnc2Oc2ccccc2)CC1 (stereo not drawn) [Compound 3]
2,40 nM,CC(C)Oc1ccccc1N1CCN(CCCNC(=O)c2cccnc2Oc2ccccc2)CC1 [Compound 5]
3,81 nM,CC(C)Oc1ccccc1N1CCN(C[C@@H](O)CNC(=O)c2cccnc2Oc2ccccc2)CC1 [Compound 8]
4,131 nM,COc1ccc(Oc2ncccc2C(=O)NCC(O)CN2CCN(c3ccccc3OC(C)C)CC2)cc1 (stereo not drawn) [Compound 10]
5,79 nM,CC(C)Oc1ccccc1N1CCN(CC(O)CNC(=O)c2cccnc2Nc2cccc(C(F)(F)F)c2)CC1 (stereo not drawn) [Compound 11]
6,299 nM,CC(C)Oc1ccccc1N1CCN(CC(O)CNC(=O)c2cccnc2Sc2ccc(Cl)cc2)CC1 (stereo not drawn) [Compound 12]
7,191 nM,COc1ncccc1C(=O)NCC(O)CN1CCN(c2ccccc2OC(C)C)CC1 (stereo not drawn) [Compound 13]
8,21 nM,COC(CNC(=O)c1cccnc1Oc1ccccc1)CN1CCN(c2ccccc2OC(C)C)CC1 (stereo not drawn) [Compound 16]
9,546 nM,CC(C)Oc1ccccc1N1CCN(CC(=O)CNC(=O)c2cccnc2Oc2ccccc2)CC1 [Compound 17]
10,50 nM,Cc1ccc(Oc2ncccc2C(=O)NC[C@H](O)CN2CCN(c3ccccc3OC(C)C)CC2)cc1 [Compound 18]
11,57 nM,CC(C)Oc1ccccc1N1CCN(C[C@@H](O)CNC(=O)c2cccnc2Oc2ccc(Cl)cc2)CC1 [Compound 27]
12,969 nM,Cc1ccc(Oc2ncccc2C(=O)NC[C@@H](O)CN2CCN(c3ccccc3OC(C)C)CC2)cc1 [Compound 28]
13,43 nM,Cc1ccc(Oc2ncccc2C(=O)NCCCN2CCN(c3ccccc3OC(C)C)CC2)cc1 [Compound 29]
14,56 nM,CC(C)Oc1ccccc1N1CCN(CC(O)CNC(=O)c2cccnc2Oc2ccc(Cl)c(Cl)c2)CC1 (stereo not drawn) [Compound 30]
